From paper PMC12583827, “Harnessing microbial-derived metabolites in the urinary tract to prevent infection induced catheter encrustation” (Nature Communications, 2025)
Counter-ions that a name gives are not always drawn.

What was measured:
P. mirabilis [1] = experiment: In vitro glass “bladder” model of catheter encrustation; type: cell-based, Proteus mirabilis; conditions: for crystalline biofilm formation / Magnesium and phosphorus precipitation on catheter segments (ICP-OES) / catheter biofilm biomass (crystal violet) vs untreated P. mirabilis: 24 h; for crystalline biofilm formation: alone: 1.25 mM AHA, 12.5 mM histamine, 12.5 mM 4-imidazole acetate; for P. mirabilis CFUs in effluent over time / urease-mediated pH increase: tested individually; for urease-mediated pH increase: dose response
Method: A Foley catheter is inserted aseptically into the vessel through an opening at the base, the balloon is inflated, and the catheter is attached to a catheter drainage bag (Fig. 7A). The “bladder” is supplied with sterile AUM at a physiologically relevant flow rate via peristaltic pump from a media reservoir, the “kidney” (Fig. 7A). An initial bacterial inoculum of 10^8 CFU of P. mirabilis was added to the AUM in the “bladder” inner chamber to model robust bacteriuria, followed by initiation of flow (Fig. 7B). The performance of urease-dampening metabolites was evaluated as a reduction in 1) effluent AUM pH over the 24 h study period, and 2) crystalline biofilm formation and ion precipitation on catheter segments 24 h post inoculation. Urease-dampening metabolites and AHA were introduced into the system by direct dissolution into the AUM reservoirs. For each study, both positive (untreated P. mirabilis) and negative (untreated P. mirabilis urease negative mutant) controls were included. Effluent urine samples were collected at 0, 3, 6, 9, 12 and 24 h post inoculation. This preclinical model of catheter encrustation was modified to assess whether prophylactic administration of urease-dampening metabolites increases efficacy of antimicrobials against catheter biofilms, as outlined in Fig. 9A. Each experiment was performed in triplicate. Full details of experimental set up, sample collection, and processing are provided below and in Supplementary Materials.
A previously described glass “bladder” model was used, in which a 500 mL water-jacketed glass vessel is maintained at 37 °C via a circulating water bath, a Foley catheter is inserted and inflated, and artificial urine medium (AUM) is supplied into the “bladder” at a constant flow rate (0.75-1.0 mL/min) through a peristaltic pump[55],[56]. For consistency with the in vitro urease activity assays and the physiologic range of urea in healthy human urine, AUM was supplemented with 500 mM urea[57]. Urease-dampening metabolites of interest were directly dissolved in AUM 500 mM urea, adjusted to a pH of 5.8, and filter sterilized via a 0.2μm filter. “Bladders” were inoculated with 10^8 CFUs of P. mirabilis. Samples were collected from the catheter port at 0, 3, 6, 9, 12, and 24 hours to monitor pH and bacterial CFUs. Catheters segments were processed for CFUs, crystal violet staining of biofilm biomass, and ion composition at 24 h. Full details are provided in the Supplementary Methods.
236 and the segments were air dried for 15 min. Catheter segments were stained with 1.0 ml 0.1%
237 crystal violet for 10 min, washed by gentle dunking in 1X phosphate-buffered saline (PBS) to
238 remove excess stain, and solubilized in a microcentrifuge tube containing 750μL of 1% SDS
239 95% ethanol and vortexed for 5 minutes. Crystal violet absorbance (OD570) was measured in a
240 BioTek Synergy H1 microplate reader and blanked using cell-free control wells for each biofilm
243 Catheter segment biofilm viability. Catheter segments were washed by gentle dunking in 1X
244 phosphate-buffered saline (PBS) to remove any remaining planktonic bacteria and residual AUM
245 from the catheter lumen. Catheter segments were then placed in a microcentrifuge tube
246 containing 1mL of 1X PBS and vortexed for 5 minutes to solubilize the biofilm. Samples
247 underwent serial 10-fold dilutions and were spiral plated (Eddy Jet 2; Neutec Group Inc.,
248 Farmingdale, NY) onto low-salt LB agar for enumeration of CFU using a ProtoCOL 3 automated
249 colony counter (Synbiosis).
251 Catheter segment elemental composition. Catheter segments were placed in a microcentrifuge

isolated rabbit bladders = conditions: cited from earlier work
[2] = system: isolated guinea pig bladders; conditions: cited from earlier work
[3] = parameters: method as in PMID 9792207; conditions: administered into the lateral ventricle; cited from earlier work
[4] = parameters: method as in PMID 9792207; conditions: higher doses, four h post intraperitoneal administration; cited from earlier work
[5] = parameters: method as in PMID 9792207; conditions: intraperitoneal injections; cited from earlier work
M. morganii TA43 = experiment: Growth and viability of M. morganii in dampening metabolites; type: cell-based, Morganella morganii
Method: 478 Supplementary Figure 20. Growth of M. morganii, P. stuartii and UTI MRSA incubated in
479 dampening metabolites. M. morganii TA43 (A,D,G), P. stuartii BE2467(B,E,H), UTI MRSA
480 (C,F,I) were incubated in urease dampening metabolites to assess impact on growth. Bacteria
481 were cultured for ~18 hours in LB (Mm and Ps) or BHI (MRSA) broth, then diluted 1:100 into
482 fresh broth with (A-C) the highest concentrations of dampening metabolites assessed for urease
483 inhibition or (D-F) serial dilutions of D-imidazole lactate. Bacterial suspensions were incubated
484 at 37 °C with double-orbital shaking, and OD600 was measured every 15 minutes for 18 hours.
485 Error bars represent mean ± standard deviation (SD) from at least 3 technical replicates, and
486 graphs are representative of 3 independent biologic experiments. (G-I) Viability of incubated in
487 Mm, Ps or MRSA incubated in serial dilutions of D-imidazole lactate. Overnight cultures were
(§1) (1 picture or pasted object on this page, not shown here)
488 subcultured to mid log phase, washed in potassium phosphate buffer, and diluted 1:10 in
489 potassium phosphate buffer with and without D-imidazole lactate. Samples (n=3) were incubated
490 at 37°C with aeration for one hour then plated and enumerated for colony forming units (CFU).

M. morganii urease = experiment: Urease activity assay, whole cell M. morganii TA43; type: cell-based, Morganella morganii
Method: (§2) Urease activity was measured as described previously in triplicate with at least three biological replicates[21]. Briefly, bacteria were cultured for ~18 h in LB broth, concentrated to an OD600 of 4, washed once in saline, and diluted (1:10 for P. mirabilis and 1:50 for P. stuartii and M. morganii) into candidate dampening metabolites in potassium phosphate buffer or human urine pH7 and supplemented with 500 mM urea and 0.01% phenol red. Bacterial suspensions were distributed into a 96-well plate, incubated at 37 °C with double-orbital shaking in a Synergy H1 plate reader (BioTek), and absorbance (OD562) was measured every 60 seconds for 180 minutes. Isogenic urease mutants (Supplementary Data 1) served as negative controls for P. mirabilis and P. stuartii and a vehicle control served as a negative control for M. morganii.

P. stuartii urease = experiment: Urease activity assay, whole cell P. stuartii BE2467; type: cell-based, Providencia stuartii
Method: as §2

P. mirabilis [6] = experiment: Growth and viability of P. mirabilis incubated in dampening metabolites; type: cell-based, Proteus mirabilis
Method: 345 Supplementary Figure 5. Growth and viability of P. mirabilis incubated in dampening
346 metabolites. (A-B) P. mirabilis was cultured for ~18 hours in LB broth, then diluted 1:100 into
347 fresh LB broth with (A) the highest concentration of each dampening metabolites that was tested
348 for urease-dampening activity or (B) serial dilutions of D-imidazole lactate. Bacterial
349 suspensions were incubated at 37 °C with double-orbital shaking, and OD600 was measured
350 every 15 minutes for 18 hours. Representative growth curves (A-B) show means and standard
351 deviations from three technical replicates. (C-E) Viability of P. mirabilis incubated in serial
352 dilutions of D-imidazole lactate. Overnight cultures were subcultured to mid log phase, washed
353 in potassium phosphate buffer, and diluted 1:10 in either (C,D) potassium phosphate buffer or
354 human urine (E) with and without D-imidazole lactate. Samples were incubated at 37°C with
as §1

[7] = alone: 5 mM AHA, 25 mM histamine, 25 mM 4-imidazole acetate
[8] = alone: 5 mM AHA, 25 mM histamine, 25 mM 4-imidazole acetate, nucleation point ~ pH 8

| Compound | crystalline biofilm formation (P. mirabilis [1]) | Magnesium and phosphorus precipitation on catheter segments (ICP-OES) (P. mirabilis [1]; [7]) | catheter biofilm biomass (crystal violet) vs untreated P. mirabilis (P. mirabilis [1]; [7]) | pH of AUM collected from “bladders” over 24 h (P. mirabilis [1]; alone, lower concentrations) | pH of AUM collected from “bladders” over 24 h (P. mirabilis [1]; [8]) | P. mirabilis CFUs in effluent over time (P. mirabilis [1]) | urease-mediated pH increase (P. mirabilis [1]) | response of isolated rabbit bladders (isolated rabbit bladders) | response of isolated guinea pig bladders [2] | blood pressure in cats [3] | effects in rats [4] | effects in mice [5] | growth of M. morganii (M. morganii TA43; LB broth) | antimicrobial activity against M. morganii TA43 (M. morganii TA43; incubation in potassium phosphate, CFU) | urease activity in M. morganii (M. morganii urease) | urease activity in P. stuartii (P. stuartii urease) | Growth of P. mirabilis in LB broth (P. mirabilis [6]; LB broth, 18 hours, OD600) | antimicrobial activity against P. mirabilis (P. mirabilis [6]; incubation in human urine) | antimicrobial activity against P. mirabilis (P. mirabilis [6]; incubation in potassium phosphate) |
| --- | --- | --- | --- | --- | --- | --- | --- | --- | --- | --- | --- | --- | --- | --- | --- | --- | --- | --- | --- |
| NCCc1c[nH]cn1 [Histamine, histamine dihydrochloride] | no impact on crystalline biofilm formation | reduced, although the reduction was not statistically significant | significantly reduced biofilm biomass | failed to restrict pH | never surpassed the nucleation point | no meaningful differences between CFUs over time | perturbed urease-mediated pH increase in a dose-dependent manner | induce a contractile response | induce a contractile response | – | – | – | – | – | – | – | – | – | – |
| Cl.O=C(O)Cc1cnc[nH]1 [4-imidazole acetate, 2-(1H-Imidazol-5-yl)acetic acid hydrochloride] | no impact on crystalline biofilm formation | reduced, although the reduction was not statistically significant | significantly reduced biofilm biomass | failed to restrict pH | never surpassed the nucleation point | no meaningful differences between CFUs over time | perturbed urease-mediated pH increase in a dose-dependent manner | – | – | dose-dependent decrease in blood pressure | seizures | sleep-like state and a decrease in body temperature | – | – | – | – | – | – | – |
| O.O=C(O)[C@H](O)Cc1cnc[nH]1 [D-imidazole lactate, D-imidazolelactic acid hydrate] | – | – | – | – | – | – | – | – | – | – | – | – | perturbed growth | robust antimicrobial activity | most potent urease inhibition | most potent urease inhibition | perturbed | less-pronounced activity | robust antimicrobial activity |
